# Results taken from paper PMC6333288, “The crystal structure of the N-acetylglucosamine 2-epimerase from Nostoc sp. KVJ10 reveals the true dimer” (Acta Crystallographica. Section D, Structural Biology, 2019).
# Experiments:
# nAGE10 = biological target: T1, nAGE10 (Nostoc sp. KVJ10, UniProt A0A452CSU8); test: coupled AGE/NAL (AsNAL) reaction, Neu5Ac by thiobarbituric acid assay; format: biochemical; conditions: HEPES pH 8.0, 25 °C, 1 h
# T1 construct: synthetic codon-optimised gene, C-terminal hexahistidine tag (no cleavage described), expressed in E. coli BL21 Star (DE3); dimer by gel filtration; residues Tyr3-Leu391 resolved, 157-164 missing
# [1] = biological target: N-acetylglucosamine 2-epimerase from Nostoc sp. KVJ10 (Nostoc sp. KVJ10); test: SEC; gel-filtration chromatography on a Superdex 75 10/300 GL column; oligomerization state of purified nAGE10
# T1 sequence (A0A452CSU8 entry or part of it): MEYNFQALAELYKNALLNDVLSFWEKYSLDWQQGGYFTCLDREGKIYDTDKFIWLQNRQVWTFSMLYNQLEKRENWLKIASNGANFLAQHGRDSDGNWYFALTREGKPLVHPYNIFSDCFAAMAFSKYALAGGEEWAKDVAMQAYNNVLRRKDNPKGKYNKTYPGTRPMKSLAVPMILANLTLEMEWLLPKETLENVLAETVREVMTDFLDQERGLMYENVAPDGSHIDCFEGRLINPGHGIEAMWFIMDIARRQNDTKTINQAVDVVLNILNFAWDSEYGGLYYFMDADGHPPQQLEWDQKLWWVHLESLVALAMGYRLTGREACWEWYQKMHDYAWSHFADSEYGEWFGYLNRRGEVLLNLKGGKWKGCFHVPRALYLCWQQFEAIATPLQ
compound,measurement,setting,value
Nc1ncnc2c1ncn2[C@@H]1O[C@H](COP(=O)(O)OP(=O)(O)OP(=O)(O)O)[C@@H](O)[C@H]1O [ATP],"coupled AGE/NAL (AsNAL) reaction, Neu5Ac by thiobarbituric acid assay","nAGE10; 10 mM ATP present versus absent, GlcNAc 15 mM, pyruvate 15 mM, allosteric activator","In the absence of ATP, only a fraction of Neu5Ac could be synthetized from GlcNAc"
CC(=O)N[C@H]1C(O)O[C@H](CO)[C@@H](O)[C@@H]1O (stereo partly drawn) [GlcNAc],"coupled AGE/NAL (AsNAL) reaction, Neu5Ac by thiobarbituric acid assay","nAGE10; 15 mM GlcNAc, 10 mM ATP, 15 mM pyruvate",The results show that the synthesis of Neu5Ac from GlcNAc is possible
N-acetylglucosamine 2-epimerase from Nostoc sp. KVJ10 (enzyme),stoichiometry N,[1],2
